Assay results as given in the NIST ThermoML archive (doi:10.1016/j.jct.2015.08.014).
Numbers after ± are expanded uncertainties.

Experiment: xn = mol fraction of the nth substance listed
Conditions: 293.15 K, 100 kPa, Liquid, Alternating current cell with electrodes

CCCC[N+]1(C)CCCC1.N#CN=C=[N-] [1-butyl-1-methylpyrrolidinium dicyanamide] + O=C1CCCO1
electrical conductivity (Frequency=0.0015 MHz, x1 = 0.3029): 2.29 ± 0.023 S/m
electrical conductivity (Frequency=0.0015 MHz, x1 = 0.3845): 2.112 ± 0.021 S/m
electrical conductivity (Frequency=0.0015 MHz, x1 = 0.4985): 1.84 ± 0.019 S/m
electrical conductivity (Frequency=0.0015 MHz, x1 = 0.6954): 1.46 ± 0.015 S/m
electrical conductivity (Frequency=0.0015 MHz, x1 = 0.9013): 1.19 ± 0.012 S/m
electrical conductivity (Frequency=0.0015 MHz, x1 = 1): 1.123 ± 0.011 S/m
electrical conductivity (Frequency=0.002 MHz, x1 = 0.0463): 1.37 ± 0.024 S/m
electrical conductivity (Frequency=0.002 MHz, x1 = 0.0987): 2.04 ± 0.025 S/m
electrical conductivity (Frequency=0.002 MHz, x1 = 0.1449): 2.31 ± 0.024 S/m
electrical conductivity (Frequency=0.002 MHz, x1 = 0.1859): 2.443 ± 0.024 S/m
electrical conductivity (Frequency=0.002 MHz, x1 = 0.2493): 2.37 ± 0.024 S/m
electrical conductivity (Frequency=0.002 MHz, x1 = 0.3029): 2.29 ± 0.023 S/m
electrical conductivity (Frequency=0.002 MHz, x1 = 0.3845): 2.113 ± 0.021 S/m
electrical conductivity (Frequency=0.002 MHz, x1 = 0.4985): 1.84 ± 0.019 S/m
electrical conductivity (Frequency=0.002 MHz, x1 = 0.6954): 1.46 ± 0.015 S/m
electrical conductivity (Frequency=0.002 MHz, x1 = 0.9013): 1.19 ± 0.012 S/m
electrical conductivity (Frequency=0.002 MHz, x1 = 1): 1.123 ± 0.011 S/m
electrical conductivity (Frequency=0.0025 MHz, x1 = 0.0463): 1.37 ± 0.024 S/m
electrical conductivity (Frequency=0.0025 MHz, x1 = 0.0987): 2.04 ± 0.025 S/m
electrical conductivity (Frequency=0.0025 MHz, x1 = 0.1449): 2.31 ± 0.024 S/m
electrical conductivity (Frequency=0.0025 MHz, x1 = 0.1859): 2.445 ± 0.024 S/m
electrical conductivity (Frequency=0.0025 MHz, x1 = 0.2493): 2.37 ± 0.024 S/m
electrical conductivity (Frequency=0.0025 MHz, x1 = 0.3029): 2.29 ± 0.023 S/m
electrical conductivity (Frequency=0.0025 MHz, x1 = 0.3845): 2.114 ± 0.021 S/m
electrical conductivity (Frequency=0.0025 MHz, x1 = 0.4985): 1.84 ± 0.019 S/m
electrical conductivity (Frequency=0.0025 MHz, x1 = 0.6954): 1.46 ± 0.015 S/m
electrical conductivity (Frequency=0.0025 MHz, x1 = 0.9013): 1.19 ± 0.012 S/m
electrical conductivity (Frequency=0.0025 MHz, x1 = 1): 1.123 ± 0.011 S/m
electrical conductivity (Frequency=0.003 MHz, x1 = 0.0463): 1.37 ± 0.024 S/m
electrical conductivity (Frequency=0.003 MHz, x1 = 0.0987): 2.05 ± 0.025 S/m
electrical conductivity (Frequency=0.003 MHz, x1 = 0.1449): 2.31 ± 0.024 S/m
electrical conductivity (Frequency=0.003 MHz, x1 = 0.1859): 2.45 ± 0.025 S/m
electrical conductivity (Frequency=0.003 MHz, x1 = 0.2493): 2.37 ± 0.024 S/m
electrical conductivity (Frequency=0.003 MHz, x1 = 0.3029): 2.29 ± 0.023 S/m
electrical conductivity (Frequency=0.003 MHz, x1 = 0.3845): 2.114 ± 0.021 S/m
electrical conductivity (Frequency=0.003 MHz, x1 = 0.4985): 1.84 ± 0.019 S/m
electrical conductivity (Frequency=0.003 MHz, x1 = 0.6954): 1.46 ± 0.015 S/m
electrical conductivity (Frequency=0.003 MHz, x1 = 0.9013): 1.19 ± 0.012 S/m
electrical conductivity (Frequency=0.003 MHz, x1 = 1): 1.123 ± 0.011 S/m
electrical conductivity (Frequency=0.00347222 MHz, x1 = 0.0463): 1.37 ± 0.024 S/m
electrical conductivity (Frequency=0.00347222 MHz, x1 = 0.0987): 2.05 ± 0.025 S/m
electrical conductivity (Frequency=0.00347222 MHz, x1 = 0.1449): 2.31 ± 0.024 S/m
electrical conductivity (Frequency=0.00347222 MHz, x1 = 0.1859): 2.45 ± 0.025 S/m
electrical conductivity (Frequency=0.00347222 MHz, x1 = 0.2493): 2.37 ± 0.024 S/m
electrical conductivity (Frequency=0.00347222 MHz, x1 = 0.3029): 2.29 ± 0.023 S/m
electrical conductivity (Frequency=0.00347222 MHz, x1 = 0.3845): 2.115 ± 0.021 S/m
electrical conductivity (Frequency=0.00347222 MHz, x1 = 0.4985): 1.84 ± 0.019 S/m
electrical conductivity (Frequency=0.00347222 MHz, x1 = 0.6954): 1.46 ± 0.015 S/m
electrical conductivity (Frequency=0.00347222 MHz, x1 = 0.9013): 1.19 ± 0.012 S/m
electrical conductivity (Frequency=0.00347222 MHz, x1 = 1): 1.123 ± 0.011 S/m
electrical conductivity (Frequency=0.004 MHz, x1 = 0.0463): 1.37 ± 0.024 S/m
electrical conductivity (Frequency=0.004 MHz, x1 = 0.0987): 2.05 ± 0.025 S/m
electrical conductivity (Frequency=0.004 MHz, x1 = 0.1449): 2.31 ± 0.024 S/m
electrical conductivity (Frequency=0.004 MHz, x1 = 0.1859): 2.45 ± 0.025 S/m
electrical conductivity (Frequency=0.004 MHz, x1 = 0.2493): 2.37 ± 0.024 S/m
electrical conductivity (Frequency=0.004 MHz, x1 = 0.3029): 2.29 ± 0.023 S/m
electrical conductivity (Frequency=0.004 MHz, x1 = 0.3845): 2.115 ± 0.021 S/m
electrical conductivity (Frequency=0.004 MHz, x1 = 0.4985): 1.84 ± 0.019 S/m
electrical conductivity (Frequency=0.004 MHz, x1 = 0.6954): 1.46 ± 0.015 S/m
electrical conductivity (Frequency=0.004 MHz, x1 = 0.9013): 1.19 ± 0.012 S/m
electrical conductivity (Frequency=0.004 MHz, x1 = 1): 1.123 ± 0.011 S/m
electrical conductivity (Frequency=0.00446429 MHz, x1 = 0.0463): 1.37 ± 0.024 S/m
electrical conductivity (Frequency=0.00446429 MHz, x1 = 0.0987): 2.05 ± 0.025 S/m
electrical conductivity (Frequency=0.00446429 MHz, x1 = 0.1449): 2.31 ± 0.024 S/m
electrical conductivity (Frequency=0.00446429 MHz, x1 = 0.1859): 2.45 ± 0.025 S/m
electrical conductivity (Frequency=0.00446429 MHz, x1 = 0.2493): 2.37 ± 0.024 S/m
electrical conductivity (Frequency=0.00446429 MHz, x1 = 0.3029): 2.29 ± 0.023 S/m
electrical conductivity (Frequency=0.00446429 MHz, x1 = 0.3845): 2.115 ± 0.021 S/m
electrical conductivity (Frequency=0.00446429 MHz, x1 = 0.4985): 1.84 ± 0.019 S/m
electrical conductivity (Frequency=0.00446429 MHz, x1 = 0.6954): 1.46 ± 0.015 S/m
electrical conductivity (Frequency=0.00446429 MHz, x1 = 0.9013): 1.19 ± 0.012 S/m
electrical conductivity (Frequency=0.00446429 MHz, x1 = 1): 1.123 ± 0.011 S/m
electrical conductivity (Frequency=0.005 MHz, x1 = 0.0463): 1.37 ± 0.024 S/m
electrical conductivity (Frequency=0.005 MHz, x1 = 0.0987): 2.05 ± 0.025 S/m
electrical conductivity (Frequency=0.005 MHz, x1 = 0.1449): 2.31 ± 0.024 S/m
electrical conductivity (Frequency=0.005 MHz, x1 = 0.1859): 2.45 ± 0.025 S/m
electrical conductivity (Frequency=0.005 MHz, x1 = 0.2493): 2.37 ± 0.024 S/m
electrical conductivity (Frequency=0.005 MHz, x1 = 0.3029): 2.29 ± 0.023 S/m
electrical conductivity (Frequency=0.005 MHz, x1 = 0.3845): 2.115 ± 0.021 S/m
electrical conductivity (Frequency=0.005 MHz, x1 = 0.4985): 1.84 ± 0.019 S/m
electrical conductivity (Frequency=0.005 MHz, x1 = 0.6954): 1.46 ± 0.015 S/m
electrical conductivity (Frequency=0.005 MHz, x1 = 0.9013): 1.19 ± 0.012 S/m
electrical conductivity (Frequency=0.005 MHz, x1 = 1): 1.123 ± 0.011 S/m
electrical conductivity (Frequency=0.005454 MHz, x1 = 0.0463): 1.37 ± 0.024 S/m
electrical conductivity (Frequency=0.005454 MHz, x1 = 0.0987): 2.05 ± 0.025 S/m
electrical conductivity (Frequency=0.005454 MHz, x1 = 0.1449): 2.31 ± 0.024 S/m
electrical conductivity (Frequency=0.005454 MHz, x1 = 0.1859): 2.45 ± 0.025 S/m
electrical conductivity (Frequency=0.005454 MHz, x1 = 0.2493): 2.37 ± 0.024 S/m
electrical conductivity (Frequency=0.005454 MHz, x1 = 0.3029): 2.29 ± 0.023 S/m
electrical conductivity (Frequency=0.005454 MHz, x1 = 0.3845): 2.116 ± 0.021 S/m
electrical conductivity (Frequency=0.005454 MHz, x1 = 0.4985): 1.84 ± 0.019 S/m
electrical conductivity (Frequency=0.005454 MHz, x1 = 0.6954): 1.46 ± 0.015 S/m
electrical conductivity (Frequency=0.005454 MHz, x1 = 0.9013): 1.19 ± 0.012 S/m
electrical conductivity (Frequency=0.005454 MHz, x1 = 1): 1.123 ± 0.011 S/m
electrical conductivity (Frequency=0.006 MHz, x1 = 0.0463): 1.37 ± 0.024 S/m
electrical conductivity (Frequency=0.006 MHz, x1 = 0.0987): 2.05 ± 0.025 S/m
electrical conductivity (Frequency=0.006 MHz, x1 = 0.1449): 2.31 ± 0.024 S/m
electrical conductivity (Frequency=0.006 MHz, x1 = 0.1859): 2.45 ± 0.025 S/m
electrical conductivity (Frequency=0.006 MHz, x1 = 0.2493): 2.37 ± 0.024 S/m
electrical conductivity (Frequency=0.006 MHz, x1 = 0.3029): 2.29 ± 0.023 S/m
electrical conductivity (Frequency=0.006 MHz, x1 = 0.3845): 2.116 ± 0.021 S/m
electrical conductivity (Frequency=0.006 MHz, x1 = 0.4985): 1.84 ± 0.019 S/m
electrical conductivity (Frequency=0.006 MHz, x1 = 0.6954): 1.46 ± 0.015 S/m
electrical conductivity (Frequency=0.006 MHz, x1 = 0.9013): 1.19 ± 0.012 S/m
electrical conductivity (Frequency=0.006 MHz, x1 = 1): 1.123 ± 0.011 S/m
electrical conductivity (Frequency=0.00652174 MHz, x1 = 0.0463): 1.37 ± 0.024 S/m
electrical conductivity (Frequency=0.00652174 MHz, x1 = 0.0987): 2.05 ± 0.025 S/m
